Reference: patent US20260219274A1, “POLYOL SWEETNERS AND CARDIOVASCULAR AND THROMBOTIC EVENT RISK” (THE CLEVELAND CLINIC FOUNDATION, priority 2023, published 2026)

Assays:
[1] = tested on: human platelet-rich plasma; test: Aggregometry in platelet-rich plasma; format: cell-based; conditions: PRP incubated with the polyol versus vehicle, submaximal agonist
Protocol: Aggregometry in platelet rich plasma (PRP) was performed as previously described^40 and outlined in supplemental methods.
Platelet rich plasma (PRP) was isolated as previously described.^5 Whole blood was drawn from healthy donors and anticoagulated with sodium citrate (0.109 M). PRP was prepared by centrifuging at 100×g for 10 min at 22° C. Platelet poor plasma (PPP) was obtained by additional centrifugation of the remaining blood samples at 11,000×g for 2 min. Next, platelets were counted with a hemocytometer and the platelet concentration adjusted to 2×10^8/mL using PPP. PRPs were then pre-incubated with xylitol (Catalogue #X3375-5G, Sigma, St. Louis, MO, USA) at indicated concentrations or vehicle (saline) for 30 min at 22° C. After exposure to xylitol or vehicle, PRPs were maintained in suspension with constant stirring (600 rpm) at 37° C. Subsequently, platelet aggregation was induced by adding the agonists ADP (up to 5 μM, Catalogue #384, Chronolog, Havertown, PA, US) or TRAP6 (TFLLR-NH2, up to 10 μM, Catalogue #464, Tocris, Bristol, UK). For all platelet aggregometry experiments, blood was always processed within approx. 30 minutes of collection, and isolated platelets were used within 120 minutes of isolation. When used, pairs of vehicle vs. xylitol incubated PRP were always incubated and analyzed together (beginning, middle, end of platelet prep use) and after 120 minutes post isolation, PRPs were not used anymore.
Platelet rich plasma (PRP) and platelet poor plasma (PPP) was prepared as previously described with sodium citrate (0.109 M) as anticoagulant^51. Platelets were counted and concentrations adjusted to 2×10^8/mL with PPP. PRPs were pre-incubated with erythritol (Catalogue #E7500, Sigma, St. Louis, MO, USA), glucose (Catalogue #G7021, Sigma, St. Louis, MO, USA) or 1,5-AHG (Catalogue #29874, Cayman Chemical, Ann Arbor, Michigan, USA) (at indicated concentrations) or vehicle (saline) for 30 min at 22° C. After pre-incubation PRPs were maintained in suspension with constant stirring (600 rpm) at 37° C. and platelet aggregation was initiated using ADP (up to 5 μM, Catalogue #384, Chronolog, Havertown, PA, US) or TRAP6 (TFLLR-NH2, up to […], Catalogue #464, Tocris, Bristol, UK).

[2] = tested on: stable subjects undergoing elective diagnostic cardiac evaluations (Discovery Cohort); conditions: in vivo
Source text: Our first study employed a Discovery Cohort, where we used untargeted metabolomics (semi-quantitative analyses) to analyze plasma samples from 1,157 stable subjects to identify circulating analytes whose levels were associated with future development of adverse cardiovascular events over an ensuing 3 year period. The Discovery Cohort included sequential stable patients (ages 18 years or above) undergoing elective diagnostic coronary angiography for risk evaluation at a quaternary referral center between 2001 and 2007 (GeneBank at the Cleveland Clinic; clinicaltrials.gov identifier: NCT00590200) with clinical and longitudinal outcomes.
In both, the Discovery and Validation Cohorts, Major Adverse Cardiovascular Events (MACE) were defined as death, nonfatal myocardial infarction, or nonfatal cerebrovascular accident (stroke) during follow-up. Adjudicated long term survival data were collected through medical records review and Social Security Death Index query. Cardiovascular disease (CVD) was indicated as presence of peripheral artery disease or coronary artery disease, indicated as any clinical history of myocardial infarction, coronary revascularization (including percutaneous coronary intervention, coronary artery bypass surgery), or angiographic evidence of significant stenosis (≥50%) in 1 or more major coronary arteries. Estimated glomerular filtration rate (eGFR) in both cohorts was calculated based on the recent Chronic Kidney Disease Epidemiology Collaboration 2021 CKD-EPI Creatinine equation.^37 Platelet-related hematology analyses were performed with an Advia 120 hematology analyzer (Siemens, New York, NY).^38 Use of anti-platelet agents (=1556) was defined as either aspirin or a P2Y12 agent or both. All observational studies in this example are reported in compliance with the STrengthening the Reporting of Observational studies in Epidemiology (STROBE)-Statement.^39 Information on gender of study participants of the Discovery and Validation Cohorts is reported in Table 1-3.
For untargeted mass spectrometry analyses, subject plasma samples were derivatized and run on GC-MS analyses as previously described.^19 Raw data files were processed using the metabolomics BinBase database.^45
Continuous variables are summarized as median (interquartile range [IQR]), and categorical variables are presented as %. Difference between groups (e.g. tertiles or quartiles) were examined using Kruskal Wallis test for continuous variables and chisq (χ^2) test for categorical variables. Kaplan-Meier analysis with Cox proportional-hazards regression was used for time-to-event analysis to determine hazard ratios (HR) and 95% confidence intervals (CI) for incident MACE. Adjustments included traditional cardiovascular risk factors (age, sex, diabetes mellitus, systolic blood pressure, low-density lipoprotein cholesterol levels, high-density lipoprotein cholesterol levels, triglyceride levels, smoking status) and high-sensitivity C-reactive protein (hsCRP). We confirmed that the proportionality hazards assumptions were met using the Schoenfeld residuals against the transformed time. Mann-Whitney U-test or Wilcoxon matched-pairs signed rank test were applied to continuous variables to examine differences between 2 groups. Kruskal-Wallis test with Dunn's post hoc test was used for pairwise multiple comparisons of ranked data. Two-way ANOVA with Šidák's multiple comparison post hoc test was used for multiple-group comparisons of aggregometry responses using different concentrations of agonists. For analysis of collagen-dependent platelet adhesion in whole blood, a two-way repeated measures ANOVA with Sidák's multiple comparison post hoc test was used. All reported measurements represent distinct samples. Data analyses were performed with R software (version 4.0.2) and GraphPad Prism software (version 9.1.2). A two-sided P<0.05 was considered statistically significant. […]

[3] = tested on: platelets of healthy volunteers; test: Erythritol or glucose ingestion: platelet aggregation and granule release; format: in vivo, human
Protocol: (§1) This single center trial was approved by the Cleveland Clinic Institutional Review Board (clinicaltrials.gov identifier NCT04731363). Following subject consent (nonsmokers without CVD, hypertension, or diabetes), blood was drawn after overnight fast and 30 min following consumption of water containing 30 g of […] glucose (n=10, 30.1±11 years of age, 40% male), or erythritol (n=10, 30.5±8 years of age, 50% male), a quantity commonly found in erythritol-sweetened foods and the daily intake of some subjects based on 2013-2014 National Health and Nutrition Examination Survey (NHANES) data and FDA filings.(4,5).
(§2) Following erythritol consumption, postprandial circulating erythritol levels (assessed using stable-isotope-dilution liquid-chromatography tandem mass spectrometry (LC/MS/MS)3) were >1000-fold increased compared to baseline levels (median[inter quartile range], 6480[5930-7300]μM versus 3.75[3.35-3.87]μM, P<0.0001). In contrast, circulating erythritol levels remained similar before versus after glucose consumption (3.0[2.6-4.0]μM versus 2.9[2.7-3.8]μM, P=0.87; glucose levels before versus after 86.5(81.8-93.0) versus 127.0(122.3-132.3), P=0.002). […] In contrast, glucose consumption had no effect on platelet aggregation.

clinical = conditions: both, human, in vivo
Protocol: as §1, §2

| Structure (SMILES) | stimulus-dependent platelet aggregation response to ADP and TRAP6 [1] | association with cardiovascular event risks / MACE [2] | platelet aggregation responses to ADP and TRAP6 after ingestion ([3]; 30 min after 30 g vs baseline) | stimulus-dependent release of alpha granule marker CXCL4 ([3]; TRAP6 (7.5 μM), ADP (2.0 μM), after ingestion) | stimulus-dependent release of dense granule marker serotonin ([3]; TRAP6 and ADP, after ingestion) | glucose levels (clinical) | glucose levels (clinical; 30 min) |
| --- | --- | --- | --- | --- | --- | --- | --- |
| OC[C@H]1OC[C@H](O)[C@@H](O)[C@@H]1O [1,5-AHG, 1,5-anhydroglucitol, reference compound] | no effect | negatively associated | – | – | – | – | – |
| O=C[C@H](O)[C@@H](O)[C@H](O)[C@H](O)CO [glucose, reference compound] | no effect | – | no effect | no differences | no differences | 86.5(81.8-93.0) | 127.0(122.3-132.3) |
